Measurements taken from ChEMBL document CHEMBL4257566, “Design, synthesis and structure-based optimization of novel isoxazole-containing benzamide derivatives as FtsZ modulators” (Eur J Med Chem, 2018).
Converted amounts (≈) assume the structure as drawn.

Columns and labels:
Type in all cases: functional
[1] = system: Staphylococcus aureus; assay: Antibacterial activity against clinical isolate of penicillin-resistant Staphylococcus aureus after 24 hrs by broth microdilution based CLSI method
[2] = system: Bacillus pumilus; assay: Antibacterial activity against Bacillus pumilus CMCC63202 after 24 hrs by broth microdilution based CLSI method; details: CMCC63202, 24 h
[3] = system: Staphylococcus aureus; assay: Antibacterial activity against methicillin-resistant Staphylococcus aureus ATCC 43300 after 24 hrs by broth microdilution based CLSI method; details: ATCC 43300, 24 h
[4] = system: Pseudomonas aeruginosa; assay: Antibacterial activity against Pseudomonas aeruginosa ATCC 27853 after 24 hrs by broth microdilution based CLSI method; details: ATCC 27853, 24 h
[5] = system: Bacillus subtilis; assay: Antibacterial activity against Bacillus subtilis ATCC 9372 after 24 hrs by broth microdilution based CLSI method; details: ATCC 9372, 24 h
[6] = system: Staphylococcus aureus; assay: Antibacterial activity against Staphylococcus aureus ATCC 25923 after 24 hrs by broth microdilution based CLSI method; details: ATCC 25923, 24 h
[7] = system: Escherichia coli; assay: Antibacterial activity against Escherichia coli ATCC 25922 after 24 hrs by broth microdilution based CLSI method; details: ATCC 25922, 24 h

Row | Structure (SMILES) | MIC [1] [µg/mL] | MIC [2] [µg/mL] | MIC [3] [µg/mL] | MIC [4] [µg/mL] | MIC [5] [µg/mL] | MIC [6] [µg/mL] | MIC [7] [µg/mL]
1 | CCOc1cccc(-c2cc(COc3ccc(F)c(C(N)=O)c3F)on2)c1 | > 64 | 16 (≈ 42.7 µM) | > 64 | > 64 | 2 (≈ 5.34 µM) | > 64 | > 64
2 | COc1ccc(-c2cc(COc3ccc(F)c(C(N)=O)c3F)no2)cc1 | > 64 | > 64 | > 64 | > 64 | 64 (≈ 178 µM) | > 64 | > 64
3 | NC(=O)c1c(F)ccc(OCc2cc(-c3ccc(Cl)c(Cl)c3)on2)c1F | > 64 | > 64 | > 64 | > 64 | > 64 | > 64 | > 64
4 | CCCOc1cccc(-c2cc(COc3ccc(F)c(C(N)=O)c3F)on2)c1 | > 64 | > 64 | > 64 | > 64 | 64 (≈ 165 µM) | > 64 | > 64
5 | NC(=O)c1c(F)ccc(OCc2cc(-c3ccc4c(c3)OCO4)no2)c1F | > 64 | > 64 | > 64 | > 64 | 4 (≈ 10.7 µM) | > 64 | > 64
6 | NC(=O)c1c(F)ccc(OCc2cc(-c3ccc(-c4ccccc4)cc3)no2)c1F | > 64 | > 64 | > 64 | > 64 | > 64 | > 64 | > 64
7 | CN(C)c1ccc(-c2cc(COc3ccc(F)c(C(N)=O)c3F)on2)cc1 | > 64 | > 64 | > 64 | > 64 | > 64 | > 64 | > 64
8 | NC(=O)c1c(F)ccc(OCc2cc(-c3ccc(C4CCCCC4)cc3)no2)c1F | > 64 | > 64 | > 64 | > 64 | > 64 | > 64 | > 64
9 | NC(=O)c1c(F)ccc(OCc2cc(-c3ccccc3)no2)c1F | > 64 | > 64 | > 64 | > 64 | 64 (≈ 194 µM) | > 64 | > 64
10 | Cc1c(COc2ccc(F)c(C(N)=O)c2F)noc1-c1ccc(C(C)(C)C)cc1 | > 64 | 1 (≈ 2.5 µM) | > 64 | > 64 | 0.5 (≈ 1.25 µM) | > 64 | > 64
11 | NC(=O)c1c(F)ccc(OCc2cc(-c3ccc(F)cc3)no2)c1F | > 64 | > 64 | > 64 | > 64 | 4 (≈ 11.5 µM) | > 64 | > 64
12 | CCCCOc1cccc(-c2cc(COc3ccc(F)c(C(N)=O)c3F)on2)c1 | > 64 | > 64 | > 64 | > 64 | 64 (≈ 159 µM) | > 64 | > 64
13 | N#Cc1ccc(-c2cc(COc3ccc(F)c(C(N)=O)c3F)on2)cc1 | > 64 | > 64 | > 64 | > 64 | 64 (≈ 180 µM) | > 64 | > 64
14 | CC(C)(C)c1ccc(-c2cc(CCOc3ccc(F)c(C(N)=O)c3F)no2)cc1 | > 64 | > 64 | > 64 | > 64 | > 64 | > 64 | > 64
15 | COc1cccc(-c2cc(COc3ccc(F)c(C(N)=O)c3F)on2)c1 | > 64 | > 64 | > 64 | > 64 | 64 (≈ 178 µM) | > 64 | > 64
16 | NC(=O)c1c(F)ccc(OCc2cc(-c3ccc(Cl)cc3)on2)c1F | > 64 | > 64 | > 64 | > 64 | 64 (≈ 175 µM) | > 64 | > 64
17 | NC(=O)c1c(F)ccc(OCc2cc(-c3ccc(Br)cc3)no2)c1F | > 64 | > 64 | > 64 | > 64 | 1 (≈ 2.44 µM) | > 64 | > 64
18 | NC(=O)c1c(F)ccc(OCc2cc(-c3cccc(Cl)c3)on2)c1F | > 64 | > 64 | > 64 | > 64 | 8 (≈ 21.9 µM) | > 64 | > 64
19 | CC(C)(C)c1ccc(-c2onc(COc3ccc(F)c(C(N)=O)c3F)c2Br)cc1 | > 64 | 1 (≈ 2.15 µM) | > 64 | > 64 | 1 (≈ 2.15 µM) | > 64 | > 64
20 | CCCCc1ccc(-c2cc(COc3ccc(F)c(C(N)=O)c3F)no2)cc1 | > 64 | > 64 | > 64 | > 64 | 0.06 (≈ 0.155 µM) | > 64 | > 64
